Assay results: patent US8158621B2, “Methods of treating or preventing autoimmune diseases with 2,4-pyrimidinediamine compounds” (Rigel Pharmaceuticals, Inc., priority 2002, dated 2012)
One block for each compound: values may come before it.

Tests used:
[1] = tested on: IgE-induced degranulation of tissue mast cells; assay: Mouse model of passive cutaneous anaphylaxis (PCA); format: in vivo; conditions: for % Inhibition: PO; for FcεR-mediated vascular leakage: increasing doses; for Plasma level: duration of action (TABLE 4): PO
Protocol: This model provides a direct measure of IgE-induced degranulation of tissue mast cells. In this model, IgE primed animals are exposed to an allergen challenge, and the change in permeability of dermal vasculature that results from histamine release from mast cells is measured by change in the amount of dye leakage into surrounding tissue. Inhibition of mediator release by compounds that modulate mast cell degranulation is easily measured by extracting the dye from the tissue.
In the PCA assay mice are passively sensitized by intradermal injection with anti-dinitrophenol (DNP) IgE antibodies (Day −1). At predetermined times animals are treated with the test agent (Day 0). The modulatory effect of the agent on cutaneous mast cell degranulation is measured following intravenous injection of DNP conjugated to human serum albumin (HSA-DNP), together with Evans blue dye. The resulting cross-linking of the IgE receptor and subsequent mast cell degranulation-induced increase in vascular permeability is determined by measuring the amount of dye extravasation into the tissue. Dye is extracted from the tissue by formamide, and the absorbance of this extract is read at 620 nm.

[2] = tested on: bone marrow derived mast cells (BMMC); assay: BMMC high cell density IgE activation: TNFalpha; format: cell-based, mouse; conditions: read-out: BMMC anti-IgE TNF-alpha
How it was run: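 Mediator release from sensitized BMMC: after 1 h compound exposure at 37 °C (0.5% DMSO), cells challenged with DNP-BSA for 1 h and early supernatant collected. Cells then recultured 4-5 h in conditioned medium with compound; cytokines IL-6 and TNFα quantified by ELISA.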

[3] = tested on: bone marrow derived mast cells (BMMC); assay: BMMC high cell density IgE activation: hexosaminidase; format: cell-based, mouse
Primary T-cells = assay: Primary T-cell cytokine production (αCD3/αCD28): GMSCF; format: cell-based, human; conditions: read-out: 1° T-Cell GMSCF IC50
Protocol: 2E8-4E8 PBMC or proliferating T cells grown in rIL-2 from healthy human donors were suspended in PBS were spun down (1500 rpm, 8-10 minutes) and resuspended in 100 ml RPMI Complete media (1% Pen-Strep, 1% L-Glutamine, 10 mM HEPES). The cells were plated in T175 flasks (37° C., 5% CO2) and monocytes were allowed to adhere for 2-3 hours. After monocyte attachment, non-adherent cells were harvested, counted by hemocytometer, washed several times with PBS then resuspended in Yssels Complete Media (Modified IMDM Media with 1% Human AB Serum, 1% Pen-Strep, 1% L-Glutamine, 10 mM HEPES) at […]. 90 uL of the cell dilution were then added to compounds diluted to 2× in Yssel's media and incubated for 30 minutes at 37° C. (5% CO2). After this preincubation step the compound/cell mixture was transferred to stimulation plates, as described below.
Stimulation plates were prepared by coating 96 well plates with 5 μg/ml αCD3 (BD PharMingen, Catalog #555336)+10 μg/ml αCD28 (Beckman Coulter, Catalog #IM1376) in PBS (no Ca^2+/Mg^2+) at 37° C. (5% CO2) for at 3-5 hours. After incubation with the stimulation antibodies, the cocktail was removed and the plates washed 3 times with PBS prior to addition of the primary T cell/compound mixture.
The compound/cell mixture was transferred to the stimulation plates and incubated for 18 hr at 37° C. (5% CO2). After the cell stimulation, ˜150 μl supernatant were transferred from each well into 96-well filter plates (Coming PVDF Filter Plates) spun down (2000 rpm, 2-3 minutes) and either used immediately for ELISA or LUMINEX measurements or frozen down at −80° C. for future use.
Luminex immunoassay multiplexing for TNF, IL-2, GMSCF, IL-4 and IFNg was performed essentially as described by the manufacturer (Upstate Biotechnology). Essentially 50 uL of sample was diluted into 50 uL assay diluent and 50 uL incubation buffer, then incubated with 100 uL of the diluted detection antibody for 1 hr at RT in the dark. The filter plate was washed 2× in Wash Buffer, then incubated with 100 uL of the diluted secondary reagent (SAV-RPE) for 30 min at RT in the dark. Finally the plates were washed 3 times and bead identification and RPE fluorescent measured by the Luminex instrument.
Varied concentrations of compound were compared to solvent only to determine the inhibition of T-cell activation IC50 of each compound.

Syk kinase = biological target: T1, Syk kinase (Homo sapiens, UniProt P43405); assay: Syk kinase biochemical fluorescence polarization assay; conditions: isolated Syk kinase, fluorescence polarization, 4 uM ATP
T1 construct: purchased Upstate, Lake Placid NY

[4] = tested on: cultured human mast cells (CHMC); assay: CHMC low cell density ionomycin activation: hexosaminidase assay; format: cell-based; conditions: hexosaminidase release, read-out: CHMC Ionomycin Hexos. IC50
Protocol: Inhibition of degranulation was measured at both low and high cell density by quantifying the release of the granule specific factors tryptase, histamine and hexosaminidase. Inhibition of release and/or synthesis of lipid mediators was assessed by measuring the release of leukotriene LTC4 and inhibition of release and/or synthesis of cytokines was monitored by quantifying TNF-α, IL-6 and IL-13. Tryptase and hexosaminidase were quantified using fluorogenic substrates as described in their respective examples. Histamine, TNFα, IL-6, IL-13 and LTC4 were quantified using the following commercial ELISA kits: histamine (Immunotech #2015, Beckman Coulter), TNFα (Biosource #KHC3011), IL-6 (Biosource #KMC0061), IL-13 (Biosource #KHC0132) and LTC4 (Cayman Chemical #520211). The protocols of the various assays are provided below.

[5] = High Density, read-out: BMMC anti-IgE hexos
[6] = high cell density, read-out: BMMC anti-IgE Hexos.

SMILES: Oc1cccc(Nc2ncc(F)c(Nc3cccc(O)c3)n2)c1 [Compound R921218]
% Inhibition ([1]; 67% PEG/33% citrate buffer, pretreatment 10 min, 50 mg/kg): 7%
% Inhibition ([1]; 67% PEG/33% citrate buffer, pretreatment 10 min, 100 mg/kg): 11%
% Inhibition ([1]; 67% PEG/33% citrate buffer, pretreatment 10 min, 200 mg/kg): 50%
FcεR-mediated vascular leakage [1]: dose-dependent inhibition
IC50 ([2]; High Density): 274 nM
IC50 [3, 5]: 133 nM

SMILES: COc1cc(Nc2ncc(F)c(Nc3ccc4c(c3)NC(=O)C(C)(C)O4)n2)cc(OC)c1 [Compound R927050]
IC50 (Syk kinase): 114 nM
IC50 (Primary T-cells): 1120 nM
IC50 ([2]; high cell density): 19 nM
IC50 [3, 6]: 103 nM

SMILES: Nc1cccc(Nc2ncc(F)c(Nc3cccc(N)c3)n2)c1 [Compound R921302]
Plasma level ([1]; 1.5% Avicel/water, 200 mg/kg, pretreatment 30 min): 88 µg/mL
Plasma level ([1]; 1.5% Avicel/water, 200 mg/kg, pretreatment 60 min): 53 µg/mL
Plasma level ([1]; 1.5% Avicel/water, 200 mg/kg, pretreatment 120 min): 61 µg/mL
Plasma level ([1]; 1.5% Avicel/water, 200 mg/kg, pretreatment 240 min): 8 µg/mL
FcεR-mediated vascular leakage [1]: dose-dependent inhibition
IC50 (Primary T-cells): 3210 nM

SMILES: CC1(C)Oc2ccc(Nc3ncc(F)c(Nc4ccc5c(c4)NC(=O)C(C)(C)O5)n3)cc2NC1=O [Compound R940350]
IC50 (Syk kinase): 121 nM
IC50 (Primary T-cells): 2450 nM

SMILES: CNC(=O)COc1cccc(Nc2ncc(F)c(Nc3ccc4c(n3)NC(=O)C(C)(C)O4)n2)c1 [Compound R940347]
IC50 (Primary T-cells): 1610 nM

SMILES: CNC(=O)COc1cccc(Nc2ncc(F)c(Nc3ccc4c(c3)NCCO4)n2)c1 [Compound R921219]
IC50 (Syk kinase): 41 nM
% Inhibition ([1]; 1.5% Avicel/water, pretreatment 15 min, 30 mg/kg): 25%
% Inhibition ([1]; 1.5% Avicel/water, pretreatment 15 min, 100 mg/kg): 68%
% Inhibition ([1]; 1.5% Avicel/water, pretreatment 15 min, 300 mg/kg): 92%
circulating exposure levels at which active ([1]; dose level of 100 mg/kg): approximately 10 μg/m1
FcεR-mediated vascular leakage [1]: dose-dependent inhibition

Now from value to compound, other results behind:

IC50 (Primary T-cells): 1180 nM
SMILES: CNC(=O)COc1cccc(Nc2ncc(F)c(Nc3ccc4c(c3)NC(=O)C(F)(F)O4)n2)c1 [Compound R921303]

IC50 (Syk kinase): 466 nM
IC50 (Primary T-cells): > 10000 nM
IC50 ([2]; high cell density): 1920 nM
IC50 [3, 6]: 5 nM
SMILES: CC1(C)Oc2ccc(Nc3nc(Nc4cc(Cl)cc(Cl)c4)ncc3F)cc2NC1=O [Compound R927064]

IC50 [3, 5]: 650 nM
IC50 [4]: > 10000 nM
SMILES: COc1ccc(Nc2ncc(F)c(Nc3cccc(O)c3)n2)cc1OC [Compound R926113]

IC50 [3, 5]: 600 nM
IC50 [4]: > 10000 nM
SMILES: Fc1cnc(Nc2ccc3c(c2)OCCO3)nc1Nc1ccc2c(c1)OCCO2 [Compound R926109]
% Inhibition ([1]; 67% PEG/33% citrate buffer, pretreatment 15 min, 50 mg/kg): 22%
% Inhibition ([1]; 67% PEG/33% citrate buffer, pretreatment 15 min, 100 mg/kg): 32%
% Inhibition ([1]; 67% PEG/33% citrate buffer, pretreatment 15 min, 200 mg/kg): 48%
FcεR-mediated vascular leakage [1]: dose-dependent inhibition

IC50 (Primary T-cells): 1570 nM
SMILES: CNC(=O)COc1cccc(Nc2ncc(F)c(Nc3ccc4c(n3)NC(=O)CO4)n2)c1 [Compound R921304]

IC50 (Syk kinase): 223 nM
IC50 ([2]; high cell density): 190 nM
IC50 [3, 6]: 250 nM
SMILES: OCCCn1ncc2cc(Nc3ncc(F)c(Nc4ccc(Cl)c(Cl)c4)n3)ccc21 [Compound R935391]

IC50 [3, 5]: 1000 nM
IC50 [4]: > 10000 nM
SMILES: COc1ccc(Nc2ncc(F)c(Nc3ccc(OC)c(OC)c3)n2)cc1OC [Compound R926110]

IC50 (Primary T-cells): 3200 nM
SMILES: CNC(=O)COc1cccc(Nc2ncc(F)c(Nc3ccc(OC(F)(F)F)c(Cl)c3)n2)c1 [Compound R920410]

IC50 (Syk kinase): 6 nM
SMILES: CC1(C)Oc2ccc(Nc3nc(Nc4ccc5cn[nH]c5c4)ncc3F)cc2NC1=O [Compound R940363]
